Data reported in patent US12036234B2, “Heparin conjugated to collagen-binding peptides for targeting to biological and synthetic tissues” (Northwestern University, priority 2017, dated 2024).
“Also recorded” adds a separate entry of the source. Ends that are not written are not given here.

Experiments:
collagen IV = collagen IV (Mus musculus, UniProt P02463+P08122); assay: Peptide binding to ECM protein coated plates (streptavidin-594 fluorescence); design: purchased Sigma-Aldrich; conditions: 1000 μM biotinylated peptide; relative to background fluorescence at 0 μM
Procedure: (§1) Peptide and ECM Binding Specificity. Collagens I, II, III, and IV, fibronectin, laminin, and Matrigel were coated onto 96-well black plates at 10 μg/cm^2. Biotinylated CBP or CBPi were added to coated plates at 0, 1, 10, 100, and 1000 μM overnight at 4° C., after which the plates were washed three times with PBS. Fluorescent streptavidin-594 (4 μg/mL) was added to each well and incubated at room temperature for 2 h, then thoroughly washed with PBS. The plates were read with a fluorescence microplate reader for fluorescence intensity (Ex 591 nm, Em 614 nm). All data were normalized to the background fluorescence intensity of Streptavidin-594 alone directed at each coated protein.

Matrigel = assay: as above; conditions: 1000 μM biotinylated peptide
Procedure: as §1

collagen III = target: T1, collagen III (Homo sapiens, UniProt P02461); assay: as above; conditions: biotinylated peptide
T1 construct: purchased Sigma-Aldrich
T1 sequence (P02461 154-1221 limits assumed): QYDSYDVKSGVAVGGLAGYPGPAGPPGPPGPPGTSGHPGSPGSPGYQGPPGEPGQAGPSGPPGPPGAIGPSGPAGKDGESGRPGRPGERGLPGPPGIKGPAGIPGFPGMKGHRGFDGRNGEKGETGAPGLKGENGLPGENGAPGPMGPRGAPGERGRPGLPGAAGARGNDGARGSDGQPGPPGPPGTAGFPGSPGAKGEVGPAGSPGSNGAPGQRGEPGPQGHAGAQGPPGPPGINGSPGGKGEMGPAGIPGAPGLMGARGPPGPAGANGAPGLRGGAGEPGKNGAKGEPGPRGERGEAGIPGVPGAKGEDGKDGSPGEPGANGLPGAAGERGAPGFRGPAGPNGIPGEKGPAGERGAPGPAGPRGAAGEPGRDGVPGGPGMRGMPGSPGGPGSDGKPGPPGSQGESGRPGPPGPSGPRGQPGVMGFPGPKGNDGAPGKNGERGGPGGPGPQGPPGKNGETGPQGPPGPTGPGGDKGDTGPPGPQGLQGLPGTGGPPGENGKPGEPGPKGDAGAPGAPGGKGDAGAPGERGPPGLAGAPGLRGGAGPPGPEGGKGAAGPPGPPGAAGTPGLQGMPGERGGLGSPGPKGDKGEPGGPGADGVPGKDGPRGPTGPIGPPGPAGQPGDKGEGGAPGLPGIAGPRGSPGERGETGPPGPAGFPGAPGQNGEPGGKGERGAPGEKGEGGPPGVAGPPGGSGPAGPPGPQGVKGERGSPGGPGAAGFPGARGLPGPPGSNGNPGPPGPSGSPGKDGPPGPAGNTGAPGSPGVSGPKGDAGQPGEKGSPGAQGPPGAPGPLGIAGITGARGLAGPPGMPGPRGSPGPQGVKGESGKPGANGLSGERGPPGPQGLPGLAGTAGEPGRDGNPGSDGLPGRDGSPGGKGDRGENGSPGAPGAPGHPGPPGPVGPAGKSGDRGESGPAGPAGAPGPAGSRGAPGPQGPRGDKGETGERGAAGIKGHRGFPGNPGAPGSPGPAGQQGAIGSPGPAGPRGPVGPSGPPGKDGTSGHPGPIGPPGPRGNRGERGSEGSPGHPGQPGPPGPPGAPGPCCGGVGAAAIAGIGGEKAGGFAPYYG
Procedure: as §1

laminin = target: T2, laminin (Mus musculus, UniProt P02468+P02469+P19137); assay: as above; conditions: 1000 μM biotinylated peptide
T2 construct: purchased Sigma-Aldrich
Procedure: as §1

collagen II = assay: as above; design: species or system chicken; conditions: biotinylated peptide
Procedure: as §1

fibronectin = assay: as above; design: species or system human; conditions: biotinylated peptide
Procedure: as §1

[1] = tested on: Human umbilical vein endothelial cells (HUVECs); assay: Endothelial cell adhesion and retention on modified ECM; format: cell-based; conditions: 4 weeks (day 28) in culture
Procedure: Addition of Endothelial Cells to Modified ECM. Human umbilical vein endothelial cells (HUVECs, Lonza) at passages 3-8 were cultured in EGM-2 and used for cell seeding. The following groups of ECM vascular grafts (1 cm in length each, n=3 per group) were prepared: (1) ECM control alone without heparin or peptide; (2) ECM incubated with free, unconjugated heparin sodium (1 mg/mL); (3) ECM incubated with CBPi conjugated to heparin (1 mg/mL); and (4) ECM incubated with CBP conjugated to heparin (1 mg/mL). HUVECs were seeded twice onto the lumen of each graft (10000 cells/cm^2 at each inoculation) with a 180° rotation of the graft at 30 min after initial seeding. Recellularized grafts were maintained in culture under static condition with medium changed every 2 days.
Cell Number and Viability Measurement. Resazurin was used to assess cell number and viability of HUVECs on ECM grafts over time. 16 Resazurin sodium (44 μM in EGM-2) was added to cell-laden, ECM-modified grafts and incubated for 2 h and the fluorescence intensity (Ex 560 nm, Em 590 nm) was read. The number of cells was calculated based on the fluorescence reading of serially diluted HUVEC suspensions incubated in resazurin solution to develop a standard curve. Prior to performing each measurement, cell seeded grafts were moved to a new low-attachment, multiwell plate to eliminate off target readings from cells that may have migrated off the graft.
Cell Staining and Fluorescence Microscopy. At 4 weeks after cell seeding, each cell-seeded graft was fixed with paraformaldehyde and stained with Phalloidin-488. Fluorescence microscopy (Nikon TE2000U, Japan) was performed on the flattened luminal surface of the graft.

collagen I = target: T3, collagen I (Rattus norvegicus, UniProt P02454+P02466); assay: Peptide binding to ECM protein coated plates (streptavidin-594 fluorescence); conditions: biotinylated peptide
T3 construct: purchased Sigma-Aldrich
Procedure: as §1

[2] = tested on: collagen I and collagen IV in decellularized rat aorta ECM and renal ECM; assay: Streptavidin-594 staining of biotinylated CBP on decellularized tissue; format: binding; conditions: biotinylated CBP at 100 μM
Description: FIG. 7: Immunofluorescence staining of collagen I and collagen IV in decellularized rat aorta ECM (A) and renal ECM (C). Streptavidin-594 staining of biotinylated CBP on decellularized rat aorta ECM (B) and renal ECM (D). Scale bar=100 μm.
The binding between collagens (types I and IV) and CBP, is predicted to be mediated by intermolecular forces between discrete amino acids within collagen and CBP^17 that contribute to the binding specificity observed above. The molecular composition of ECM is largely heterogeneous, including fibrous proteins such as collagens, soluble proteins such as fibronectin and laminin, and proteoglycans such as heparan sulfate, keratin sulfate, and chondroitin sulfate.^18 The detailed composition of ECM proteins also varies from tissue to tissue, however, ECM from most tissue types contains collagen I (interstitial matrix) and collagen IV (basement membrane).^18 Each collagen subtype is retained in decellularized tissues, specifically vascular (FIG. 7A) and renal tissues (FIG. 7C). […] Taken together, this delivery strategy using CBP as a localizing moiety specifically targets collagens (type IV in particular) and may be used to selectively carry bioactive molecules to the vasculature where collagen IV defines the subendothelial basement membrane that forms the vascular network, including the macro- and micro-vasculatures within all tissues and organs.

[3] = tested on: recalcified porcine blood; assay: Clot formation of recalcified whole blood on ECM grafts
Procedure: Clot Formation of Recalcified Whole Blood. A recalcified whole blood clotting assay was performed to assess hemocompatibility of ECM grafts treated with or without the addition of heparin, alone or conjugated to CBP/CBPi.^15 Briefly, […] Each sample was weighed before and after incubation with recalcified blood, and the mass of the blood clotted on each sample was calculated and normalized to the weight of the ECM. Each sample containing clotted blood was subsequently embedded in paraffin, sectioned and stained with H&E for microscopic analysis.

factor Xa = conditions: unconjugated heparin sodium; cited from earlier work
rat aorta ECM = assay: Heparin deposited and retained on aorta ECM (DMMB GAG assay); format: binding; conditions: immediately after treatment at 1 mg/mL (t=0)
Procedure: Heparin Immobilization onto Rat Aorta ECM. All animal experiments and procedures were approved by the Animal Care and Use Committee of Northwestern University and animal care was performed in accordance with the NIH Guide for Care and Use of Laboratory Animals. Male Sprague-Dawley rats weighing 200-250 g (Charles River Laboratories, Chicago, IL) were used as donors to recover the abdominal segment of the aorta. Rat aorta ECM was isolated via decellularization as described 13 using 1% Triton X for 48 h and 1.5% SDS for 48 h at room temperature, followed by 100 U/mL DNase I solution at 37° C. for 4 h. Aorta ECM was subsequently incubated with heparin sodium, CBP-conjugated heparin or CBPi-conjugated heparin (1 mg/mL) overnight at 4° C., followed by three washes with PBS to remove excessive and unbound heparin (FIG. 1B). ECM without heparin incubation served as negative, untreated controls.
Quantification of Heparin Deposited onto ECM. The amount of heparin immobilized onto aorta ECM was quantified using a GAG assay. […] Retention of heparin on ECM after CBP-heparin treatment was assessed by incubating heparinized ECM in endothelial growth medium (EGM-2, Lonza) at 37° C. and measuring the amount of heparin remaining on ECM weekly using a GAG assay. […]

rat platelet rich plasma = assay: Platelet adhesion to modified ECM (LDH assay); format: cell-based; conditions: ECM treated at 1 mg/mL
Procedure: Platelet Adhesion. The thrombogenic properties of modified ECM were evaluated by a platelet adhesion assay described previously.^13 ECM grafts were incubated in diluted rat platelet rich plasma ([…] platelet/mL) at 37° C. for 1 h, rinsed with warm PBS, and lysed with 2% Triton-X. Lactate dehydrogenase (LDH) released into the medium was measured by an LDH assay following the manufacturer's protocol (Roche Molecular Diagnostics, Pleasanton, CA). LDH measured from lysates of serially diluted platelets standardized the assay to quantify the concentration of deposited platelet on ECM.

[4] = target: T4, vascular endothelial growth factor, VEGF (Homo sapiens, UniProt P15692); assay: Growth factor binding to modified ECM (VEGF ELISA); conditions: after incubation in EGM-2 for 3 days
T4 construct: purchased Lonza (component of EGM-2 medium)
T4 sequence (P15692 27-191 isoform P15692-4): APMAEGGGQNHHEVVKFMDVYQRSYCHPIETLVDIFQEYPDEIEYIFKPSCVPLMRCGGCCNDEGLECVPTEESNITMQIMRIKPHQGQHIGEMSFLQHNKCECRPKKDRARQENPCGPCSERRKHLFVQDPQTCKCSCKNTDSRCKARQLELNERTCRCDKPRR
Procedure: Growth Factor Binding to Modified ECM. ECM samples treated with PBS alone, heparin alone, CBPi-heparin, or CBP-heparin were incubated in EGM-2 (containing 2 ng/mL recombinant human vascular endothelial growth factor, VEGF) for 3 days and washed with PBS to measure the degree of VEGF recruited to heparin modified ECM. ECM grafts before and after EGM-2 incubation were weighed and proteins were extracted as previously described using a urea buffer. 13 The amount of VEGF was measured using an ELISA for human and rat VEGF (Thermo Fisher, Waltham, MA).

Chain of collagen IV (P02463 173-1669): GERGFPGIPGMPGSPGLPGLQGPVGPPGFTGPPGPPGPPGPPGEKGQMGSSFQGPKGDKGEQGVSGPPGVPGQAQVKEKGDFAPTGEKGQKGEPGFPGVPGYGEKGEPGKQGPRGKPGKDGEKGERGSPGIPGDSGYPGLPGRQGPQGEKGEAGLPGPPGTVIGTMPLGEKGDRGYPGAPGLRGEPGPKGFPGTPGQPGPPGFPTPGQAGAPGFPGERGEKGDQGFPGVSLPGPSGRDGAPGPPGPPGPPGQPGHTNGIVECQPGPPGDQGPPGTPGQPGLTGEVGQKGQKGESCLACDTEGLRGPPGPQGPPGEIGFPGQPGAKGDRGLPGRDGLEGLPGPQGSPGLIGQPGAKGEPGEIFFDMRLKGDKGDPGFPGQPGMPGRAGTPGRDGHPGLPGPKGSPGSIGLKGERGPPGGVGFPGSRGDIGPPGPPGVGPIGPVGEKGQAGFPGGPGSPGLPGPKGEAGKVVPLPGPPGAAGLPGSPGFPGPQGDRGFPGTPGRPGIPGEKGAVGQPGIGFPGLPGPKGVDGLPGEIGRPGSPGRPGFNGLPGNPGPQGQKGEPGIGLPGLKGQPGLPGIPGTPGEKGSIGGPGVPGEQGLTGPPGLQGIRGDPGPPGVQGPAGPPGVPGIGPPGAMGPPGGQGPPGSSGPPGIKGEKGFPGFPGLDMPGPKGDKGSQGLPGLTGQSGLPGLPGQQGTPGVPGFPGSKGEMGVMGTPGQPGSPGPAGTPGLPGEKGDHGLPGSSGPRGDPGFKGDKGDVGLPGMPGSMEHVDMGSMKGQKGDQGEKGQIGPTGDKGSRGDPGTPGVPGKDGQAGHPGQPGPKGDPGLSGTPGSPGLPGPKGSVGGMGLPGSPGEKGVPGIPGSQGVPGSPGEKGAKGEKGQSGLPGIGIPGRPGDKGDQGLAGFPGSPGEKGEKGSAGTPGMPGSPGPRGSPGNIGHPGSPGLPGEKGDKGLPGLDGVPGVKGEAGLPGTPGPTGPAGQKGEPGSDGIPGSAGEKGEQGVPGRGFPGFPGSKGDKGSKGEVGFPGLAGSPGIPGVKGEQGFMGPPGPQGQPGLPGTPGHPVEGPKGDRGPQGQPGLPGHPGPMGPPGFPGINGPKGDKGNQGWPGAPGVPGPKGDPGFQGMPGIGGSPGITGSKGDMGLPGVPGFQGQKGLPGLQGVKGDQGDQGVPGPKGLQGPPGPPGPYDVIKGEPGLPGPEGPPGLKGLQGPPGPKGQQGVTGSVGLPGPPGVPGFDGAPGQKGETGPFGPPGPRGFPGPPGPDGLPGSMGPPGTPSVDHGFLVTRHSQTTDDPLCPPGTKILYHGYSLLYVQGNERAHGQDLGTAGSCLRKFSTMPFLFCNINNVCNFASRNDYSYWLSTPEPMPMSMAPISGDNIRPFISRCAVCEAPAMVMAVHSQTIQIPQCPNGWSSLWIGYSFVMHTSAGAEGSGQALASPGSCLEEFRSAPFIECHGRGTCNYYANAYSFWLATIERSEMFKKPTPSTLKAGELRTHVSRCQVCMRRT
Chain of collagen IV (P08122 184-1707): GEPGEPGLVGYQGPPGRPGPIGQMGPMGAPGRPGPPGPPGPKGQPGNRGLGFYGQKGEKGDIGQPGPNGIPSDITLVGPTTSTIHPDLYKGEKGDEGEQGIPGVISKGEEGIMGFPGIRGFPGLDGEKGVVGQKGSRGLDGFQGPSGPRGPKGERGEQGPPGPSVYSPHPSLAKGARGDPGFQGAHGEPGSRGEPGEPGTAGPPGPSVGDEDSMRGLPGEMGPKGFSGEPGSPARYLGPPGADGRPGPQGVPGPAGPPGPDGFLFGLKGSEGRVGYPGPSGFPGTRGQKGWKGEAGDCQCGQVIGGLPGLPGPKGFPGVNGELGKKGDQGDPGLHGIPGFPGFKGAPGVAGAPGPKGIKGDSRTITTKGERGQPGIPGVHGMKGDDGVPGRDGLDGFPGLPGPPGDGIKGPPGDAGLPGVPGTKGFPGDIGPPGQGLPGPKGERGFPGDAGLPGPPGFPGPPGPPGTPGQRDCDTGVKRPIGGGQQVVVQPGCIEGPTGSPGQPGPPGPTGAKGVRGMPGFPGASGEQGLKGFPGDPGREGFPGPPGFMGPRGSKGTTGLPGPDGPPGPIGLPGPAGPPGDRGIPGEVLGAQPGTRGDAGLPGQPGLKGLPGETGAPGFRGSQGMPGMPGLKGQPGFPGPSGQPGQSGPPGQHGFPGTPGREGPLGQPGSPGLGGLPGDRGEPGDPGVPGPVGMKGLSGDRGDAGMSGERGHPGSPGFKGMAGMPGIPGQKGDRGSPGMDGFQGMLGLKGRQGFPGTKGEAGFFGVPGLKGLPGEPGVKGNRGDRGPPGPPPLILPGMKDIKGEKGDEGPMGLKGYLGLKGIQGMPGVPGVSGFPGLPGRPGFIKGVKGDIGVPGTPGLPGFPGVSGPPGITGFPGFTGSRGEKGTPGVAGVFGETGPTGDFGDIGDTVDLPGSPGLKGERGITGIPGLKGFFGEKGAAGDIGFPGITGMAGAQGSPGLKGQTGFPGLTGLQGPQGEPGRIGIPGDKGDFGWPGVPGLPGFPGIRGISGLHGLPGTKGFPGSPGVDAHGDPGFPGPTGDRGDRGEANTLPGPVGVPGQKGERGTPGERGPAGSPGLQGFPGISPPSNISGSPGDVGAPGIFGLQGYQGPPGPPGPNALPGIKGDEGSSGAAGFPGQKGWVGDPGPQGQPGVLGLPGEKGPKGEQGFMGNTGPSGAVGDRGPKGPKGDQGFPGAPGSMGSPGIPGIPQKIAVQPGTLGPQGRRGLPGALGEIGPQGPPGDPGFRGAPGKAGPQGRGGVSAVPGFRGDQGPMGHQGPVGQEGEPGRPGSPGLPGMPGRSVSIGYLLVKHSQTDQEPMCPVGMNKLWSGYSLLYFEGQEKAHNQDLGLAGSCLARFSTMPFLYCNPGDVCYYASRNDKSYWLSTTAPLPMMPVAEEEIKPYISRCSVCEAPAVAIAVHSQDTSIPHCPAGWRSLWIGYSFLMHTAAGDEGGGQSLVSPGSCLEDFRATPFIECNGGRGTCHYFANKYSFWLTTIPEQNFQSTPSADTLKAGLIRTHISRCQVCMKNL
T3 sequence (P02454 152-1207 limits assumed): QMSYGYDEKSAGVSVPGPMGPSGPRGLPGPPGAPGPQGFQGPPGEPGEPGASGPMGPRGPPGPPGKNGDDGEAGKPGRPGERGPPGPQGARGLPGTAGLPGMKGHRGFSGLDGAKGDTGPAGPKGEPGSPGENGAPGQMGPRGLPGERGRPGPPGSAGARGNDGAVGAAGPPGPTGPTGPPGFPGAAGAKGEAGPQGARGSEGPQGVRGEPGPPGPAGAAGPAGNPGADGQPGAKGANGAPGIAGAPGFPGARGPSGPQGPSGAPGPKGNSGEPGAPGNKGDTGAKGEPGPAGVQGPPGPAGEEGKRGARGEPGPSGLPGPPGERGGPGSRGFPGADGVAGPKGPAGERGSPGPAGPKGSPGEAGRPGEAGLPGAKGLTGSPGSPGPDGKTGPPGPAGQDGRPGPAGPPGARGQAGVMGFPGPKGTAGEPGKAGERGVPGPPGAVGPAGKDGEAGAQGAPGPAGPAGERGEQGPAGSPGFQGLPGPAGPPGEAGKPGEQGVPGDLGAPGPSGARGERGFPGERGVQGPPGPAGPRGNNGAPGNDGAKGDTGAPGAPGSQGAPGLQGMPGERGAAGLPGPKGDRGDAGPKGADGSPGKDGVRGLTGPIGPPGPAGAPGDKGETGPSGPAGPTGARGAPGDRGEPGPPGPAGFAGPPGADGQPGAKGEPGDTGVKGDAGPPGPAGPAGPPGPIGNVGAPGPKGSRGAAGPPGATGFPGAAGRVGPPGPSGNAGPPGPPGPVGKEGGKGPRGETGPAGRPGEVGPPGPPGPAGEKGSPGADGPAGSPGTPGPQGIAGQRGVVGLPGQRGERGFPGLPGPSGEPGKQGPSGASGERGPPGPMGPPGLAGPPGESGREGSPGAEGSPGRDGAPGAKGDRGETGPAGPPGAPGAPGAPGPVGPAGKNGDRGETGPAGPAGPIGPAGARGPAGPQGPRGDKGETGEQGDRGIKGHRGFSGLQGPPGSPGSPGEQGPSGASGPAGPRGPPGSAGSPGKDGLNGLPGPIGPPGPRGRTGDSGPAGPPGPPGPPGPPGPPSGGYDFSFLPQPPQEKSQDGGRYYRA
T3 sequence (P02466 86-1125 limits assumed): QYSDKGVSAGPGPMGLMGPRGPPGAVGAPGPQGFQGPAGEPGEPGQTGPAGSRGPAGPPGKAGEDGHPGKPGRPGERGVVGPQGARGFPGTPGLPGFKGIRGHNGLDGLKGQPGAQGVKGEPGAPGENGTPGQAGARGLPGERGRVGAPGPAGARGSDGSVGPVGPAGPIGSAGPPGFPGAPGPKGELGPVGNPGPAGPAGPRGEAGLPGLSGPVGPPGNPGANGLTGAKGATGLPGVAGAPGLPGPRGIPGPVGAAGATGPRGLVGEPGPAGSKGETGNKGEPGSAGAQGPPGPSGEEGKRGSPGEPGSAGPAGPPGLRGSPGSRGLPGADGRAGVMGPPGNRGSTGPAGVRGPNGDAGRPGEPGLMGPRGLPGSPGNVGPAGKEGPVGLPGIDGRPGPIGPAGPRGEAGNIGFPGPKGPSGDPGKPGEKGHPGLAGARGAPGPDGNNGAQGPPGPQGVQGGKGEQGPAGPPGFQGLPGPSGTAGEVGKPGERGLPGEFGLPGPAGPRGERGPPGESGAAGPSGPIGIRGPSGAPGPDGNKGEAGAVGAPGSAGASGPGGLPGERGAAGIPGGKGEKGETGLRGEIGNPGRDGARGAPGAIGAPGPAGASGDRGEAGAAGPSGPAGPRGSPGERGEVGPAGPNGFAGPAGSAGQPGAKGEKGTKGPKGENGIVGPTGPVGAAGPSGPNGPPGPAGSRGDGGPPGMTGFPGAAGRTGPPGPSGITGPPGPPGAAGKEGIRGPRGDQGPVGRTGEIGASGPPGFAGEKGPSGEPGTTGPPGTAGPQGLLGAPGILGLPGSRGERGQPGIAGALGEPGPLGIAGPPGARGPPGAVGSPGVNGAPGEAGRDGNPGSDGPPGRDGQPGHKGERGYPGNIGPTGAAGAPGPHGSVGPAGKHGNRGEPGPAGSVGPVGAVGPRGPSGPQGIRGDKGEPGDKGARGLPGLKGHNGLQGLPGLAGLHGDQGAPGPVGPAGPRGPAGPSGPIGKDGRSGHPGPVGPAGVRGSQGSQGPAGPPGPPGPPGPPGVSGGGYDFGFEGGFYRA

increase in surface fluorescence intensity on collagen IV coated surface (collagen IV)	binding to collagen III (collagen III)	binding to collagen II (collagen II)	binding to fibronectin (fibronectin)	binding to collagen I coated surfaces (collagen I)	VEGF concentration within ECM grafts [4] [pg/mg ECM]	Substance	binding to Matrigel (Matrigel)	binding to laminin (laminin)	adherent endothelial cells on ECM grafts [1]	adherent endothelial cells on ECM grafts ([1]; listed as BCPi)	colocalization with collagens in decellularized vascular and renal tissue [2]	blood clots observed on ECM grafts (H&E) ([3]; decellularized vascular ECM grafts)	mass of clot/mass of ECM×100% ([3]; treated ECM with recalcified blood, 30 min point) [%]	anti-Factor Xa activity of reference standard (factor Xa) [U/mg]	glycosaminoglycan (heparin) content of ECM (rat aorta ECM) [μg GAG/mg ECM]	reduction in the number of adherent platelets compared to PBS-treated ECM (rat platelet rich plasma) [%]
did not result in any increase	Neither CBP nor CBPi binds	Neither CBP nor CBPi binds	Neither CBP nor CBPi binds	–	–	CDEFQRSTTY [CBPi]	minimal, through significant, levels of binding	minimal, through significant, levels of binding	did not preserve endothelial cell adhesion	Minimal to no cells remain	–	–	–	–	–	–
–	Neither CBP nor CBPi binds	Neither CBP nor CBPi binds	Neither CBP nor CBPi binds	to a much lesser extent	–	CQDSETRTFY (not fully specified; also: biotin, place not given here; listed as Homo sapiens) [CBP]	minimal, through significant, levels of binding	minimal, through significant, levels of binding	did not preserve endothelial cell adhesion; also recorded: Minimal to no cells remain	–	colocalized with each subtype but was more prominent around collagen IV	–	–	–	–	–
–	–	–	–	–	46.5±12.1	Heparin sodium	–	–	decreased significantly	–	–	Thick blood clots	612.1±126.0	200	2.81±0.19	5.7±6.2
